From patent US20070104750A1, “Pesticidally active compositions having enhanced activity” (priority 2005, published 2007) come the findings set out here.

The test system of series [1] is beet armyworm (Spodoptera exigua) larvae.
The text on series [2]: Determination of whether a pesticidally active ingredient is reactive with singlet oxygen can be determined from a simple singlet oxygen reactivity test, comprising irradiating a solution of a pesticidally active ingredient in the presence of a photosensitizer, e.g. methylene blue or rose bengal, with a suitable light source, e.g. a sodium lamp, whose spectral output is capable of allowing light absorption by the photo-sensitizer while bypassing the absorption band of the pesticidally active ingredient. The light source, in combination with the photosensitizer and molecular oxygen, will generate singlet oxygen. The observed degradation of the pesticidally active ingredient by a suitable analytical technique, such as HPLC, is indicative of its reaction with singlet oxygen. This test can be conducted in solvents in which singlet oxygen has a relatively long lifetime, e.g. perdeuterated versions of common solvents and carbon disulfide in order to speed the rate of reaction and thereby maximize the detectability of the degradation. Decay constants for singlet oxygen in various solvents are well known in the art and can be found in J. Phys. […] An Expanded and Revised Compilation” by Francis Wilkinson, W. Phillip Helman and Alberta B. Ross; Table 1, entitled Decay Constants for Singlet Oxygen in Various Solvents.
Confirmation of the degradation of the pesticidally active ingredient by singlet oxygen can be obtained further by adding a molecule which is capable of deactivating singlet oxygen by physical or chemical means, i.e. a singlet oxygen quencher, to the pesticidally active ingredient-photosensitizer solution. Suitable singlet oxygen quenchers include, for example DABCO (1,4-diazabicyclo[2.2.2]octane) and beta-carotene. A reduction in the rate of degradation of the pesticidally active ingredient in the presence of a singlet oxygen quencher confirms that the initial degradation was due to the reaction with singlet oxygen.
The solution was irradiated with a Philips 150 watt high pressure sodium lamp (sample was ca. 20 cm from lamp). […] The experiment was repeated with the inclusion of the singlet oxygen quencher DABCO (1.0×10^−3M, diazabicyclooctane Aldrich). A value greater than one indicates a slowing of the degradation due to singlet oxygen in the presence of the quencher.

Setting [3] is: activity enhancer alone, 1000 ppm, 9 DAT.
[4] abbreviates: activity enhancer alone, 10,000 ppm, 4 DAT.
Where [5] appears, read: activity enhancer alone, 10,000 ppm, 7 DAT.

Where two headings read alike, the source gives them in different places.

With `C1CN2CCN1CC2` [DABCO, diazabicyclooctane], the Percent mortality came out at 0% in series [1] (activity enhancer alone, 1000 ppm, 2 DAT); 0% in series [1] (activity enhancer alone, 1000 ppm, 7 DAT); 0% in series [1] (setting [3]).
Regarding `CCO[C@@H]1[C@@H](OC)[C@H](C)O[C@@H](O[C@@H]2C[C@H]3CC[C@@H]4[C@@H](C=C5C(=O)[C@H](C)[C@@H](O[C@H]6CC[C@H](N(C)C)[C@@H](C)O6)CCC[C@H](CC)OC(=O)C[C@H]54)[C@@H]3C2)[C@@H]1OC` [DE-175 J, (2R,3aR,5aR,5bS,9S,13S,14R,16aS,16bR)-13-{[(2R,5S,6R)-5-(dimethylamino)-6-methyltetrahydro-2H-pyran-2-yl]oxy}-9-ethyl-14-methyl-7,15-dioxo-2,3,3a,4,5,5a,5b,6,7,9,10,11,12,13,14,15,16a,16b-octadecahydro-1H-as-indaceno[3,2-d]oxacyclododecin-2-yl 6-deoxy-3-O-ethyl-2,4-di-O-methyl-α-L-mannopyranoside], the “rate constant for the degradation” value in series [2] turned out to be 0.1317 min⁻¹. Moreover, the kwo/kw is on record as 1.9 in series [2] (potential activity enhancer TEPA, weight ratio I/II 3.3:1, acetonitrile); 1.15 in series [2] (potential activity enhancer Tryptophan, weight ratio I/II 1:1, methanol); 1.3 in series [2] (potential activity enhancer Tryptophan, weight ratio I/II 1:10, methanol); 1.0 in series [2] (potential activity enhancer Zein, weight ratio I/II 1:5, isopropanol(85)/water(15)); 5.1 in series [2] (quencher DABCO, weight ratio active ingredient/DABCO 3.3:1, acetonitrile).
As to `CC(Cc1ccc(C(C)(C)C)cc1)CN1C[C@@H](C)O[C@@H](C)C1` (stereo partly drawn) [Fenpropimorph], the kwo/kw in series [2] (quencher DABCO, weight ratio active ingredient/DABCO 2.7:1, acetonitrile) is listed as 7.7.
For `C1N2CN3CN1CN(C2)C3` [HMTA, hexamethylenetetramine], in series [1] (setting [3]), the Percent mortality is 4%.
Regarding `C=CCOC(Cn1ccnc1)c1ccc(Cl)cc1Cl` (stereo not drawn) [Imazalil], in series [2] (quencher DABCO, weight ratio active ingredient/DABCO 2.6:1, acetonitrile), the kwo/kw came out at 4.4.
Consider Abamectin, for which the kwo/kw in series [2] (potential activity enhancer Zein, weight ratio I/II 1:20, isopropanol(85)/water(15)) worked out at 1.0; in series [2] (quencher DABCO, weight ratio active ingredient/DABCO 7.8:1, acetonitrile-d3) it was 37.2.
For “BSA (as 30% aqueous suspension): Bovine Serum Albumin available from Sigma”, the Percent mortality in series [1] (setting [4]) and in series [1] (setting [5]) was 0% each time.
On to “BSA (as 96% powder): Bovine Serum Albumin available from Sigma”, for which the Percent mortality in series [1] (setting [4]) and in series [1] (setting [5]) was 0% throughout.

B1: Egg albumin: Egg Albumin available from Sigma (protein, UniProt P01012 2-386, looked up)
Ovalbumin: GSIGAASMEFCFDVFKELKVHHANENIFYCPIAIMSALAMVYLGAKDSTRTQINKVVRFDKLPGFGDSIEAQCGTSVNVHSSLRDILNQITKPNDVYSFSLASRLYAEERYPILPEYLQCVKELYRGGLEPINFQTAADQARELINSWVESQTNGIIRNVLQPSSVDSQTAMVLVNAIVFKGLWEKAFKDEDTQAMPFRVTEQESKPVQMMYQIGLFRVASMASEKMKILELPFASGTMSMLVLLPDEVSGLEQLESIINFEKLTEWTSSNVMEERKIKVYLPRMKMEEKYNLTSVLMAMGITDVFSSSANLSGISSAESLKISQAVHAAHAEINEAGREVVGSAEAGVDAASVSEEFRADHPFLFCIKHIATNAVLFFGRCVSP
B1: the Percent mortality in series [1] (activity enhancer alone, 1000 ppm, 3 DAT) came out at 0%; in series [1] (activity enhancer alone, 1000 ppm, 5 DAT), 0%; in series [1] (activity enhancer alone, 1000 ppm, 8 DAT), 0%.
